In patent US8778919B2, “Cyclic anilino—pyridinotriazines” (Janssen Pharmaceutica NV, priority 2005, dated 2014):

Assays:
Type in all cases: biochemical
CDK2/cyclinA (h) = CDK2/cyclinA (h) (Homo sapiens, UniProt P24941); test: Kinase profiling C3.3 CDK2/cyclinA human; settings: test concentration of 10^−6 M
Outline: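 Human CDK2/cyclinA (5-10 mU) phosphorylates 0.1 mg/ml histone H1 in 8 mM MOPS pH 7.0, EDTA, 10 mM Mg acetate with [γ-33P]ATP, 40 min at room temperature. After phosphoric acid stop, filter-bound 33P counted by scintillation.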

GSK-3α = GSK-3α (Homo sapiens, UniProt P49840); test: GSK-3 kinase assay (C1), GSK-3α; settings: 1 μM ATP, read-out: C1 Score α
Chain of GSK-3α (P49840 whole entry, species assumed): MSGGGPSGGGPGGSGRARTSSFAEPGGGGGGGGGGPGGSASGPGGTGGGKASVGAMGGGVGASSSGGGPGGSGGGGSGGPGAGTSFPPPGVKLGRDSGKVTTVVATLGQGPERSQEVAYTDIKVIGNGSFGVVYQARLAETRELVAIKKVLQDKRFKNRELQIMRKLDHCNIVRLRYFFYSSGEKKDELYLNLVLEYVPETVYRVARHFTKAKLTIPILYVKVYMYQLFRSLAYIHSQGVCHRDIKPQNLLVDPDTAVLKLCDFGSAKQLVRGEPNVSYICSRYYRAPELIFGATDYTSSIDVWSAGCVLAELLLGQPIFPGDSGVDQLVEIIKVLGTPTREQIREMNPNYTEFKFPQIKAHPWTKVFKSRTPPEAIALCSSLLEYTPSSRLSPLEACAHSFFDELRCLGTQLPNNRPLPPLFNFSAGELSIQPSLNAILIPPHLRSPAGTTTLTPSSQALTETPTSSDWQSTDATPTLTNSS
Outline: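 Radiometric SPA at room temperature in 25 mM Tris pH 7.4 with 10 mM MgCl2, 1 mM DTT, 5.7 ng/μl GSK-3β or 0.25 ng/μl GSK-3α, 5 μM biotinylated CREB peptide and 1 μM ATP plus ^33P-ATP. Stopped after 1 h; IC50 from dose-response versus no-compound control, reported as pIC50 score bands.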

CDK7/cyclinH/MAT1 (h) = CDK7/cyclinH/MAT1 (h) (Homo sapiens, UniProt P50613); test: Kinase profiling C3.8 CDK7/cyclinH/MAT1 human; settings: CDK7/cyclinH/MAT1, test concentration of 10^−6 M
Chain of CDK7/cyclinH/MAT1 (h) (P50613 whole entry): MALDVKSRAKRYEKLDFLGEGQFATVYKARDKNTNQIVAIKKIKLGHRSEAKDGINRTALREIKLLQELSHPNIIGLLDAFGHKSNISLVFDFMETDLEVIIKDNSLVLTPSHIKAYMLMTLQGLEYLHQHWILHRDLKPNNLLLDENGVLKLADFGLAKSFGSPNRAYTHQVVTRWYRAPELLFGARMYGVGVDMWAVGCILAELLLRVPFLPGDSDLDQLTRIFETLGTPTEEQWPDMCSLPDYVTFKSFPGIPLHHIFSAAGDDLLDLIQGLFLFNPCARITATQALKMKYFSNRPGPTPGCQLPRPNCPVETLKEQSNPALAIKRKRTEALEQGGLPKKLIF
Chain of CDK7/cyclinH/MAT1 (h) (P51946 whole entry partner): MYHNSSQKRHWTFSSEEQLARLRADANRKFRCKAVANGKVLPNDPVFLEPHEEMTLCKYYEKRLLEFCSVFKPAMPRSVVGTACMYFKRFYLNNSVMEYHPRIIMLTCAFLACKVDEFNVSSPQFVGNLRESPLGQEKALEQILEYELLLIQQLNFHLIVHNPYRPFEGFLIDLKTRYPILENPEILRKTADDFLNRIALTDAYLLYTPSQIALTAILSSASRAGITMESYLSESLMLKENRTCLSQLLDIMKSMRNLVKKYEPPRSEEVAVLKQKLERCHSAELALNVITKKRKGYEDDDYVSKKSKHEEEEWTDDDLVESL
Chain of CDK7/cyclinH/MAT1 (h) (P51948 whole entry partner): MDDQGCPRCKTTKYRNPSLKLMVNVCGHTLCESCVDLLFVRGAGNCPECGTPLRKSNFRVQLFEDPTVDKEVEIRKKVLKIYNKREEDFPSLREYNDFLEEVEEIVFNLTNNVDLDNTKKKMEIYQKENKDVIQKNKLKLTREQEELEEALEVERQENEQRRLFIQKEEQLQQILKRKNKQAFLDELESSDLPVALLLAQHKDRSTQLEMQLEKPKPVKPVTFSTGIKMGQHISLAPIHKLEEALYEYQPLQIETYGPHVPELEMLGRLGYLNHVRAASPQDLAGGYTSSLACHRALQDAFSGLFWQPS
Outline: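 Human CDK7/cyclinH/MAT1 (5-10 mU) incubated 40 min at room temperature in 8 mM MOPS pH 7.0, 0.2 mM EDTA, 10 mM Mg acetate, 500 μM peptide substrate and [γ-^33P]ATP. Stopped with phosphoric acid; substrate phosphorylation measured by filter binding and scintillation counting.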

CDK2/cyclinE (h) = CDK2/cyclinE (h) (Homo sapiens, UniProt P24941); test: Kinase profiling C3.4 CDK2/cyclinE human; settings: test concentration of 10^−6 M
Outline: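 Radiometric filter-binding assay: 5-10 mU enzyme with 0.1 mg/ml histone H1 in 8 mM MOPS pH 7.0, 0.2 mM EDTA, 10 mM Mg acetate and [γ-33P]ATP. Incubated 40 min at room temperature, stopped with phosphoric acid. Substrate-bound 33P counted on P30 filtermat.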

CDK5/p35 human = CDK5/p35 human (Homo sapiens, UniProt Q00535); test: Kinase profiling C3.6 CDK5/p35 human; settings: CDK5/p35, test concentration of 10^−6 M
Chain of CDK5/p35 human (Q00535 whole entry): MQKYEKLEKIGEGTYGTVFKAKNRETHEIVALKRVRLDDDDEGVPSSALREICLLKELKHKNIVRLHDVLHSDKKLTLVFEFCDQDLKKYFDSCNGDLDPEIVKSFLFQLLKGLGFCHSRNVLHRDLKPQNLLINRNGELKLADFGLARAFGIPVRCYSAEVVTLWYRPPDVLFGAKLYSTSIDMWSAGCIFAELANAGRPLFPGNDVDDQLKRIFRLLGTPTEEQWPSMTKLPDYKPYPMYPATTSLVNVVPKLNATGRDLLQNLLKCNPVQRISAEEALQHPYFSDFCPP
Chain of CDK5/p35 human (Q15078 whole entry partner): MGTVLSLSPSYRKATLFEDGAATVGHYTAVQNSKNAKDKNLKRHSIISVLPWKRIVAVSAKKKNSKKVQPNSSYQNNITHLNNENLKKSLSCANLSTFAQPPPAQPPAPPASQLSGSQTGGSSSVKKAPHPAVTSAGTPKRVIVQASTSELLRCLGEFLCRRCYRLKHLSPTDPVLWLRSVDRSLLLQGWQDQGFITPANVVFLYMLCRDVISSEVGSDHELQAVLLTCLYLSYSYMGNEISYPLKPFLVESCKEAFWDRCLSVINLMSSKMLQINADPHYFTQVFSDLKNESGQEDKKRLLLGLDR
Outline: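 Radiometric filter-binding assay: human CDK5/p35 (5-10 mU) with 0.1 mg/ml histone H1 substrate in 8 mM MOPS pH 7.0, 0.2 mM EDTA, 10 mM Mg acetate and [γ-33P]ATP. Incubated 40 min at room temperature, stopped with phosphoric acid. Substrate 33P incorporation counted on P30 filtermat by scintillation.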

CDK3/cyclinE (h) = CDK3/cyclinE (h) (Homo sapiens, UniProt Q00526); test: Kinase profiling C3.5 CDK3/cyclinE human; settings: test concentration of 10^−6 M
Outline: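 Human CDK3/cyclinE (5-10 mU) phosphorylated 0.1 mg/ml histone H1 in 8 mM MOPS pH 7.0, 0.2 mM EDTA and 10 mM MgAcetate with [γ-33P]ATP. Reaction ran 40 min at room temperature and was stopped with phosphoric acid. Substrate-bound radioactivity was captured on P30 filtermat and measured by scintillation counting.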

SMILES | C3.3 score (CDK2/cyclinA (h)) | IC50 (GSK-3α) [nM] | C3.8 score (CDK7/cyclinH/MAT1 (h)) | C3.4 score (CDK2/cyclinE (h)) | C3.6 score (CDK5/p35 human) | C3.5 score (CDK3/cyclinE (h))
O=C1NCCCc2cc(ccc2F)-c2ncnc(n2)Nc2cc(Cl)cc(c2)CN[C@H]1CO [Compound 71] | 2 (Score 2 = 30-60% inhibition) | < 10 | 4 (Score 4 = >80% inhibition) | 4 (Score 4 = >80% inhibition) | 4 (Score 4 = >80% inhibition) | 4 (Score 4 = >80% inhibition)
O=C1NCCCc2cncc(c2)-c2ncnc(n2)Nc2cccc(c2)CN[C@H]1CO [Compound 81] | 3 (Score 3 = 60-80% inhibition) | < 10 | 1 (Score 1 = 10-30% inhibition) | 4 (Score 4 = >80% inhibition) | 3 (Score 3 = 60-80% inhibition) | 3 (Score 3 = 60-80% inhibition)
